Columns and labels:
[1] = tested on: nnr5 cells; assay: Pro-NTF killing assay (MTT), nnr5 cells; assay type: cell-based; settings: pro-NTF 50 nM + I-B 20 μM, 72 hours
Method: The effect of I-B on the pro-apoptotic function of pro-NGF or pro-BDNF was tested in functional MTT assays measuring cell metabolism (FIG. 1B).
Cells (5,000 cells/well) were cultured in 96-well plates (Falcon, Lincoln Park, N.J.) in normal culture media (RPMI1640, Hepes, Glutamine, 5% serum). Wells were supplemented with NGF, BDNF, pro-NGF, or pro-BDNF (Alomone Labs) (50 nM final), in the presence or absence of I-B (20 μM final). Wells containing all culture conditions but no cells were used as blanks. The growth/survival profile of the cells was quantified using MTT (Sigma) 72 hours after plating. Optical density readings of MTT were done in a Benchmark Plus microplate Spectrophotometer (BioRad) at 595 nm with blanks subtracted.

[2] = tested on: retinal ganglion cells (RGCs); assay: ON axotomy model, quantification of surviving RGCs (fluorogold labeled); assay type: in vivo; settings: rat ON axotomy, one intravitreal injection 3 μg, day 14; contralateral normal eye = 100%; control axotomy 10%
Method: Wistar rats (female, 250-300 g; Charles River) were kept in a 12 hours dark-light cycle with food and water ad libitum. All animal manipulations were performed between 9 AM and 12 AM. Deep anesthesia was used during cauterization (induction of glaucoma), ON transection, fluorogold labeling, intraocular injection procedures, Optical Coherence Tomography measurements, and euthanasia (ketamine, xylazine, acepromazine injected intraperitoneally: 50/5/1 mg/kg, as per IACUC recommendations). For measuring IOP, light anesthesia was used (a gas mixture of Oxygen, 2% isofluorane mixture, at a rate of 2.5 liter/min, as per IACUC recommendations).
The ON axotomy model in the rat (Bai et al., 2010a) was used. […]
For studies in the glaucoma animal model the injections were performed at days 14 and 21 after cauterization. […] Thus, in this paradigm there is pre-existing damage for 14 days before treatment (measured at ˜8% RGC death (Shi et al., 2007; Shi et al., 2008)); and the treatments require long-lived efficacy in the constant presence of retinal stress due to high IOP. […]
Quantification of labeled RGCs was performed as reported (Shi et al., 2007; Shi et al., 2008). […] Pictures for each freshly flat-mounted retina were taken using a Zeiss fluorescence microscope (Carl Zeiss Meditec, Jena, Germany), with 12 pictures/retina at 20× magnification. […]

[3] = tested on: α2M; assay: Glaucoma model, retinal α2M by western blot; assay type: in vivo, rat; settings: intravitreal injection at glaucoma day 14, measured 3 and 5 days later
Method: After 14-days of glaucoma eyes were injected intravitreally with p75NTR antagonists, and the levels of TNF-α and α2M were measured three days later (e.g. day 17 of glaucoma) and five days later (e.g. day 19 of glaucoma) (FIG. 3A).
Both retinas of each animal were detergent solubilized, and studied in independent gels standardized to loading control. The ratio of the glaucoma eye ±treatment versus the normal contralateral eye was calculated, and results were averaged ±sem, n=3 animals per group. In glaucoma, all drug treatments were done at day 14 of hypertension. In one group the retinas were harvested at day 17 of glaucoma (3 days after intraocular injection) and in the other group the retinas were harvested at day 19 of glaucoma (5 days after intraocular injection). Normal eyes treated with NGF-A were collected in the indicated days. After SDS-PAGE and western transfer, membranes were immunoblotted with rabbit polyclonal antibodies against TNF-α (Preprotech) or α2M (Santa Cruz) at a 1:3000 dilution. Goat anti-rabbit secondary antibodies conjugated to horseradish peroxidase (Sigma) were used at a 1:10,000 dilution. Loading was controlled with antibodies to β-actin (Sigma). For digital quantification, membranes were scanned and analyzed using ImageJ software.

CC(C)NC(=O)N(C(=O)Cn1cnc2c1c(=O)n(C)c(=O)n2C)C(C)C [I-B, 1,3-Diisopropyl-1-[2-(1,3-dimethyl-2,6-dioxo-1,2,3,6-tetrahydro-purin-7-yl)-acetyl]-urea]
cell viability (MTT) in presence of pro-NGF or pro-BDNF [1]: prevented the loss of cell viability | RGCs surviving [2]: 37% | α2M level in glaucomatous retina, fold-change versus normal retina [3]: time-dependent inhibition

From patent US9296691B2, “Inhibitors of p75 receptor and their uses” (Horacio Uri Saragovi, priority 2010, dated 2016)
